Experimental findings from ChEMBL document CHEMBL1141132, “6-[1-(2,6-difluorophenyl)ethyl]pyrimidinones antagonize cell proliferation and induce cell differentiation by inhibiting (a nontelomeric) endogenous reverse transcriptase” (2005) are described below.

The test system of assay [1] is A-375. As to the kind of experiment: Percentage inhibition of proliferation against alive human A-375 cells treated with DMSO (control) at a concentration of 350 uM. It counts as functional.
In assay [2] the test system is A-375. As to the kind of experiment: Effect on apoptotic human A-375 cell death treated with DMSO(control) at a concentration of 40 uM. It counts as functional.
For assay [3], the system named is A-375. As to the kind of experiment: Effect on apoptotic human A-375 cell death treated with DMSO(control) at a concentration of 50 uM. The class given is functional.
Assay [4] deals with A-375. As to the kind of experiment: Effect on alive human A-375 cell death treated with DMSO(control) at a concentration of 40 uM. It counts as functional.
The test system of assay [5] is A-375. As to the kind of experiment: Effect on apoptotic human A-375 cell death treated with DMSO(control) at a concentration of 25 uM. The class given is functional.
Assay [6] relates to A-375. As to the kind of experiment: Effect on necrotic human A-375 cell death treated with DMSO(control) at a concentration of 10 uM. It counts as functional.
The subject of assay [7] is A-375. As to the kind of experiment: Effect on necrotic human A-375 cell death treated with DMSO(control) at a concentration of 25 uM. It counts as functional.
Assay [8] concerns A-375. As to the kind of experiment: Effect on alive human A-375 cell death treated with DMSO(control) at a concentration of 25 uM. The class given is functional.
The test system of assay [9] is A-375. As to the kind of experiment: Effect on apoptotic human A-375 cell death treated with DMSO(control) at a concentration of 10 uM. It counts as functional.
The subject of assay [10] is A-375. As to the kind of experiment: Effect on alive human A-375 cell death treated with DMSO(control) at a concentration of 50 uM. It counts as functional.
In assay [11] the test system is A-375. As to the kind of experiment: Effect on necrotic human A-375 cell death treated with DMSO(control) at a concentration of 50 uM. The class given is functional.
Assay [12] deals with A-375. As to the kind of experiment: Percentage inhibition of proliferation against alive human A-375 cells treated with DMSO (control) at a concentration of 40 uM. It counts as functional.
Assay [13] has as its system A-375. As to the kind of experiment: Percentage of alive human A-375 cells relative to DMSO-treated control at a concentration of 10 uM.
Assay [14] deals with A-375. As to the kind of experiment: Effect on necrotic human A-375 cell death treated with DMSO(control) at a concentration of 40 uM. It counts as functional.
Assay [15] deals with A-375. As to the kind of experiment: Percentage of alive human A-375 cells relative to DMSO-treated control at a concentration of 25 uM.
The test system of assay [16] is A-375. As to the kind of experiment: Percentage inhibition of proliferation against alive human A-375 cells treated with DMSO (control) at a concentration of 50 uM. It counts as functional.
Assay [17] deals with A-375. As to the kind of experiment: Effect on alive human A-375 cell death treated with DMSO(control) at a concentration of 10 uM. It counts as functional.
For assay [18], the system named is A-375. As to the kind of experiment: Percentage of alive human A-375 cells relative to DMSO-treated control at a concentration of 15 uM.

As for `Cc1ccnc2c1NC(=O)c1cccnc1N2C1CC1` [NEVIRAPINE], 350 µM produced 35% inhibition in the assay on A-375 [1].

For the compound `Cc1c(C(C)c2c(F)cccc2F)nc(SC2CCCC2)[nH]c1=O` (centres undefined), the Activity was 1% with A-375 [2]; 12.8% in the assay with A-375 [3]; 98.7% in the assay with A-375 [4]; 2.6% with A-375 [5]; 1% with A-375 [6]; 1% in the assay on A-375 [7]. For the same compound, the Activity in the assay on A-375 [8] is 96.4%; in the assay with A-375 [9], 2.3%; in the assay with A-375 [10], 80%; with A-375 [11], 7.2%; in the assay with A-375 [14] it was 0.3%; in the assay on A-375 [17], 96.7%. For the same compound, 40 µM produced 65% inhibition with A-375 [12]. In the assay on A-375 [13], this compound displayed an alive cells at 10 µM of 77%. The alive cells at 25 µM in the assay with A-375 [15] stood at 72%. In the assay on A-375 [16], the inhibition at 50 µM was 14%.

In the assay with A-375 [18], `O=C1Nc2ccc(Cl)cc2[C@@](C#CC2CC2)(C(F)(F)F)O1` [EFAVIRENZ] showed an alive cells at 15 µM of 51%.

Regarding `Cc1c(C(C)c2c(F)cccc2F)nc(N(C)C)[nH]c1=O` (centres undefined), the Activity in the assay on A-375 [2] stood at 3.1%; in the assay on A-375 [3], 8.4%; with A-375 [4] it was 96%; with A-375 [5], 2.3%; in the assay with A-375 [6], 0.8%; with A-375 [7], 1%. For the same compound, the Activity was 96.3% with A-375 [8]; 1.8% in the assay with A-375 [9]; 89% in the assay on A-375 [10]; 2.6% with A-375 [11]; 0.9% with A-375 [14]; 97.4% in the assay with A-375 [17]. Moreover, in the assay on A-375 [12], the inhibition at 40 µM is 42%. This compound yielded an alive cells at 10 µM with A-375 [13] of 91%. In the assay with A-375 [15], this compound showed an alive cells at 25 µM of 86%. In the assay on A-375 [16], this compound displayed an inhibition at 50 µM of 30%.
